According to ChEMBL document CHEMBL1126134, “7,8-Dihydro-8-ethyl-2-(3-noradamantyl)-4-propyl-1H-imidazo[2,1-i]purin-5(4H)-one: a potent and water-soluble adenosine A1 antagonist” (J Med Chem, 1992):
In brackets after ≈: the same amount, converted by molar mass.

Experiments:
Adenosine receptor A1 [1] = molecular target: T1, Adenosine receptor A1 (Cavia porcellus, UniProt P47745); type: cell membranes, Brain membranes
T1 sequence (P47745 whole entry): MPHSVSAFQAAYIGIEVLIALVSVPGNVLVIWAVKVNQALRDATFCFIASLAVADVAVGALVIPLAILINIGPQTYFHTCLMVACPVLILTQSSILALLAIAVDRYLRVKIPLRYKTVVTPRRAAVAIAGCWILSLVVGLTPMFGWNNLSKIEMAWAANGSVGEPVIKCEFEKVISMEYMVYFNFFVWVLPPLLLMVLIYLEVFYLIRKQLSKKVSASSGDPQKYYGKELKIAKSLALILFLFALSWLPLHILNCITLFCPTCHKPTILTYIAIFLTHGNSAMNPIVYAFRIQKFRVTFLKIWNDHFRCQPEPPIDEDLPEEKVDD

physchem = conditions: water
Description: Solubility of the compound(10 mg) was measured in water(2.5 mL) at 20 degree celsius for 1 hr

[2] = Solubility was measured in saline; type: physicochemical
Adenosine receptor A1 [3] = molecular target: T1, Adenosine receptor A1; type: cell membranes, Brain membranes; remark: listed apart in the source
Adenosine A2 receptor = Adenosine A2 receptor (Homo sapiens, UniProt P29275+P29274); experiment: Binding affinity for adenosine A2 receptor using N-[3H]-ethyladenosin-5''-uronamide in guinea pig forebrain membranes

Ki (Adenosine receptor A1 [1]) [nM] | solubility at 1 h (physchem) [µg/mL] | solubility [2] [µg/mL] | Ki (Adenosine receptor A1 [3]) [nM] | Ki (Adenosine A2 receptor) [nM] | Compound
2.7 | 3000 (≈ 8160 µM) | – | – | – | CCCN1C(=O)N2C[C@@H](CC)N=C2c2[nH]c(C34CC5CC(CC3C5)C4)nc21
120 | 2900 (≈ 7890 µM) | – | – | – | CCCN1C(=O)N2C[C@H](CC)N=C2c2[nH]c(C34CC5CC(CC3C5)C4)nc21
– | 3200 (≈ 8710 µM) | 990 (≈ 2690 µM) | 5.7 | – | CCCN1C(=O)N2CC(CC)N=C2c2[nH]c(C34CC5CC(CC3C5)C4)nc21 (stereo not given)

Second part, the compound before the results:

Compound | Ki (Adenosine receptor A1 [1]) [nM] | solubility at 1 h (physchem) [µg/mL] | solubility [2] [µg/mL] | Ki (Adenosine receptor A1 [3]) [nM] | Ki (Adenosine A2 receptor) [nM]
CCCn1c(=O)c2nc(C(C3CC3)C3CC3)[nH]c2n(CCC)c1=O | – | 8.5 (≈ 25.7 µM) | 5.8 (≈ 17.6 µM) | – | 430
CCCn1c(=O)c2[nH]c(C3CCC(=O)C3)nc2n(CCC)c1=O (stereo not given) | – | 220 (≈ 691 µM) | 200 (≈ 628 µM) | – | –
CCCn1c(=O)c2[nH]c(C3CCCC3)nc2n(CCC)c1=O [1,3-DIPROPYL-8-CYCLOPENTYLXANTHINE [DPCPX]] | – | 3.3 (≈ 10.8 µM) | – | – | –
CCCn1c(=O)c2[nH]c(C34CC5CC(CC3C5)C4)nc2n(CCC)c1=O [ROLOFYLLINE] | – | 0.5 (≈ 1.4 µM) | 0.6 (≈ 1.68 µM) | – | –
